Laboratory results reported in the Kinase Knowledgebase extract (Sharma et al. 2016).
pKi: −log10 of the molar value.

Target: PIK3CG (human) (UniProt P48736)
Test: Inhibition of PIK3CG Kinase Activity

Chain of PIK3CG (human) (P48736 whole entry, looked up): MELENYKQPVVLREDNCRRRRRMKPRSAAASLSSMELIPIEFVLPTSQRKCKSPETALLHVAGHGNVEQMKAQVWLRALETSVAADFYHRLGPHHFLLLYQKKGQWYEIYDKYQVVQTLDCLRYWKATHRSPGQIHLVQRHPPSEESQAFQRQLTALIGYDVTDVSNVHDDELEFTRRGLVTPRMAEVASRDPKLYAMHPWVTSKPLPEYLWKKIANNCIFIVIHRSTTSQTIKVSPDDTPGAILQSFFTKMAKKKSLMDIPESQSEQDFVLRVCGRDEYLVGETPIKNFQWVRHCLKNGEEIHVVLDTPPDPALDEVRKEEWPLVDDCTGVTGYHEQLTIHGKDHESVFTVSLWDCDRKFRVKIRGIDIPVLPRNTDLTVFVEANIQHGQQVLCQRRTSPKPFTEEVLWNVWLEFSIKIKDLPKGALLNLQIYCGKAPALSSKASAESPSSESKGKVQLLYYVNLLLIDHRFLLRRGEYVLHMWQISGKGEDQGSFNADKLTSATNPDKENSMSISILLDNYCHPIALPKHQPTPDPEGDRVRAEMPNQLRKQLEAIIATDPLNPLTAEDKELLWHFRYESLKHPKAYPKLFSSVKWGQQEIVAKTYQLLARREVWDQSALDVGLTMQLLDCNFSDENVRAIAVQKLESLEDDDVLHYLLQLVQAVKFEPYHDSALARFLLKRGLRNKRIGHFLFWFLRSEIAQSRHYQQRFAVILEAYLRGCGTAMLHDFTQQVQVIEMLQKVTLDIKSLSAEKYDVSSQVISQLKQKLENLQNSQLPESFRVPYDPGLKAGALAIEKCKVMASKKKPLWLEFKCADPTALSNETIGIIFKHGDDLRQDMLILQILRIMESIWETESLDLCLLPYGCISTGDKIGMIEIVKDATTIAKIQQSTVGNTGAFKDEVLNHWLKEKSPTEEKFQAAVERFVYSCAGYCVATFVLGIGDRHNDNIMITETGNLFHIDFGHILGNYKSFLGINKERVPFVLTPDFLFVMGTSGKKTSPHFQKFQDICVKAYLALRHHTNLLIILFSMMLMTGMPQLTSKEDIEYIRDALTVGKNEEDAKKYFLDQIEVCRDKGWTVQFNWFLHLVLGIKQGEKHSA

Row | SMILES | pKi
1 | COc1cc(-c2ccc3c(n2)CN(c2cnn(CCn4nc(C)cc4C)c2)C3=O)cnc1OC | 6.31 to 7.00
2 | COc1cc(-c2ccc3c(c2)CN(c2ncc(C)s2)C3=O)cnc1OC | 6.31 to 7.00
3 | COCCCn1cc(N2Cc3cc(-c4cnc(OC)c(OC)c4)ccc3C2=O)cn1 | 6.31 to 7.00
4 | Cc1cc(-c2cncc(C(=O)N3CCOCC3)c2)nc2c1C(=O)N(c1cnn(CC(F)(F)F)c1)C2(C)C | 6.31 to 7.00
5 | COc1cc(-c2ccc3c(c2)CN(c2cnn(CC4CCCO4)c2)C3=O)cnc1OC (stereo not given) | 6.31 to 7.00
6 | COc1cc(-c2ccc3c(n2)CN(c2ccc(N4CCNCC4)nc2)C3=O)cnc1OC | 6.31 to 7.00
7 | COc1cc(-c2ccc3c(n2)CN(c2cnn(CC#N)c2)C3=O)cnc1OC | > 7.00
8 | C=C1c2nc(-c3cnc(OC)c(OC)c3)ccc2C(=O)N1c1cnn(CC#N)c1 | > 7.00
9 | CCn1ncc(N2Cc3nc(-c4cnc(OC)c(OC)c4)cc(C)c3C2=O)n1 | > 7.00
10 | COc1ncc(-c2cc(C)c3c(n2)C(C)(C)N(c2cnn(CC(F)(F)F)c2)C3=O)cc1C(=O)NC(C)C | > 7.00
11 | CCn1cnc(N2Cc3cc(-c4cnc(OC)c(OC)c4)ccc3C2=O)n1 | > 7.00
12 | COc1cc(-c2ccc3c(n2)CN(c2ccnc(CC#N)c2)C3=O)cnc1OC | > 7.00
13 | COc1cc(-c2cc(C)c3c(c2)CN(c2cnn([C@H](CO)C(F)(F)F)c2)C3=O)cnc1OC | > 7.00
14 | COc1ncc(-c2cc(C)c3c(c2)C(C)N(c2cnn(CC(F)(F)F)c2)C3=O)cc1OC(F)F (stereo not given) | > 7.00
15 | COc1cc(-c2ccc3c(n2)CN(c2cnn(CC(C)C)c2)C3=O)cnc1OC | > 7.00
16 | COc1cc(-c2ccc3c(n2)C(C)N(c2cnn(C(C)(C)C#N)c2)C3=O)cnc1OC (stereo not given) | > 7.00
17 | COc1ncc(-c2cc(C)c3c(n2)C(C)(C)N(c2cnn(CC(F)(F)F)c2)C3=O)cc1C(=O)N[C@H]1CCOC1 | > 7.00
18 | CCOc1cncc(-c2cc(C)c3c(n2)[C@@]2(CCOC2)N(c2cnn(CC(F)(F)F)c2)C3=O)c1 | > 7.00
19 | COc1cc(-c2ccc3c(n2)[C@@H](C)N(c2ccn(CC(C)(C)O)n2)C3=O)cnc1OC | > 7.00
20 | COc1cncc(-c2cc(C)c3c(n2)C(C)(C)N(c2cnn(CC(F)F)c2)C3=O)c1 | > 7.00
21 | COC1c2nc(-c3cncc(OCC(F)F)c3)cc(C)c2C(=O)N1c1cnn(CC(F)(F)F)c1 (stereo not given) | > 7.00
22 | CCNC(=O)c1cc(-c2cc(C)c3c(n2)C2(COC2)N(c2cnn(CC(F)(F)F)c2)C3=O)cnc1C | > 7.00

Row | SMILES | pKi
23 | CCOc1ncc(-c2cc(C)c3c(n2)C(CC)N(c2cnn(CC(F)(F)F)c2)C3=O)cc1OC (stereo not given) | > 7.00
24 | Cc1cc(-c2cncc(OCC(F)(F)F)c2)cc2c1C(=O)N(c1cnn(CC(F)(F)F)c1)C2 | > 7.00
25 | CCn1ccc(N2C(=O)c3c(C)cc(-c4cncc(OC)c4)nc3[C@@H]2C)n1 | > 7.00
26 | COc1cc(-c2ccc3c(n2)CN(c2cnn(CCC(=O)O)c2)C3=O)cnc1OC | > 7.00
27 | CCCCn1cc(N2Cc3cc(-c4cnc(OC)c(OC)c4)ccc3C2=O)cn1 | 6.31 to 7.00
28 | CCOc1ncc(-c2ccc3c(n2)CN(c2cnn(CC#N)c2)C3=O)cc1OC | > 7.00
29 | COCCOCCOc1ncc(-c2cc(C)c3c(n2)CN(c2cnn(C)c2)C3=O)cc1OC | 6.31 to 7.00
30 | Cc1cc(-c2cncc(S(=O)(=O)N(C)C)c2)nc2c1C(=O)N(c1ccn([C@H]3CCOC3)n1)C2 | > 7.00
31 | CC[C@@]1(OC)c2nc(-c3cnc(OC)c(OC)c3)cc(C)c2C(=O)N1c1cnn(CC(F)(F)F)c1 | > 7.00
32 | CCOc1ncc(-c2cc(C)c3c(n2)C2(CCCO2)N(c2cnn(CC(F)(F)F)c2)C3=O)cc1OC (stereo not given) | > 7.00
33 | Cc1cc(-c2cncc(OC(C)C)c2)nc2c1C(=O)N(c1cnn(CC(F)(F)F)c1)C2(C)C | > 7.00
34 | COCCOCCOc1cc(-c2cc(C)c3c(n2)CN(c2cnn(CC(F)(F)F)c2)C3=O)cnc1OC | > 7.00
35 | COc1cc(-c2ccc3c(c2)CN(c2cnn(CC(F)F)c2)C3=O)cnc1OC | > 7.00
36 | COc1cncc(-c2cc(C)c3c(n2)C2(COC2)N(c2cnn(CC(F)(F)F)c2)C3=O)c1 | > 7.00
37 | COc1cc(-c2ccc3c(n2)CN(c2ccnc(C(C)(C)C#N)c2)C3=O)cnc1OC | > 7.00
38 | COc1cc(-c2cc(C)c3c(n2)C(C)(C)N(c2cnn(CC(F)(F)F)c2)C3=O)cnc1OC | > 7.00
39 | COc1cc(-c2cc(C)c3c(c2)CN(c2cnn([C@@H](CO)C(F)(F)F)c2)C3=O)cnc1OC | > 7.00
40 | Cc1cc(-c2cncc(OCC(F)F)c2)nc2c1C(=O)N(c1cc[nH]n1)C2C (stereo not given) | 6.31 to 7.00
41 | COc1ncc(-c2cc(C)c3c(n2)CN(c2cn[nH]c2)C3=O)cc1OC(C)C | > 7.00
42 | COc1cc(-c2ccc3c(n2)[C@@H](C)N(c2cccc(C(C)(C)C#N)n2)C3=O)cnc1OC | > 7.00
43 | CNC(=O)c1cc(-c2cc(C)c3c(n2)C(C)(C)N(c2cnn(CC(F)(F)F)c2)C3=O)cnc1OC | 6.31 to 7.00

The next lines start with the values.

Row | pKi | SMILES
44 | > 7.00 | COc1cc(-c2ccc3c(n2)C(C)N(c2cc[nH]n2)C3=O)cnc1OC (stereo not given)
45 | > 7.00 | Cc1cc(-c2cnc(C)c(C(=O)NC(C)C)c2)nc2c1C(=O)N(c1cnn(CC(F)(F)F)c1)C2(C)C
46 | > 7.00 | COCCOCCOc1ncc(-c2cc(C)c3c(n2)CN(c2cnn(CC(F)(F)F)c2)C3=O)cc1OC
47 | > 7.00 | CCn1cc(N2Cc3nc(-c4cnc(OC)c(OC(F)F)c4)ccc3C2=O)cn1
48 | > 7.00 | COc1cc(-c2cc(C)c3c(n2)CN(c2cnn(CC(F)(F)F)c2)C3=O)ccc1F
49 | > 7.00 | COc1cc(-c2ccc3c(n2)CN(c2ccc(N4CCC(N(C)C)C4)nc2)C3=O)cnc1OC (stereo not given)
50 | > 7.00 | COc1cc(-c2ccc3c(n2)CN(c2cnn(C(F)(F)C#N)c2)C3=O)cnc1OC
51 | > 7.00 | COc1cc(-c2cc(C)c3c(n2)C(O[C@H]2CCOC2)N(c2cnn(CC(F)(F)F)c2)C3=O)cnc1OC (stereo not given in full)
52 | > 7.00 | CCCOc1cc(-c2cc(C)c3c(n2)CN(c2ccn(C4COC4)n2)C3=O)cnc1OC
53 | > 7.00 | COc1cc(-c2ccc3c(n2)CN(c2ccc(=O)n(CC(F)(F)F)c2)C3=O)cnc1OC
54 | > 7.00 | COc1ncc(-c2ccc3c(n2)CN(c2cnn(CC(F)(F)F)c2)C3=O)cc1OC(F)F
55 | > 7.00 | COc1cc(-c2ccc3c(c2)CN(c2cncc(CC#N)c2)C3=O)cnc1OC
56 | > 7.00 | COc1cc(-c2cc(C)c3c(n2)C2(CCOCC2)N(c2cnn(CC(F)(F)F)c2)C3=O)cnc1OC(C)C
57 | > 7.00 | COc1cc(-c2ccc3c(n2)CN(c2cccc(C(C)(C)C#N)n2)C3=O)cnc1OC
58 | > 7.00 | Cc1cc(-c2cncc(OC(F)F)c2)nc2c1C(=O)N(c1cnn(C[C@H](C)O)c1)C2C (stereo not given in full)
59 | > 7.00 | CCCOC1c2nc(-c3cnc(OC)c(OC)c3)cc(C)c2C(=O)N1c1cnn(CC(F)(F)F)c1 (stereo not given)
60 | > 7.00 | CCOc1cncc(-c2cc(C)c3c(n2)[C@@](C)(OC)N(c2cnn(CC(F)(F)F)c2)C3=O)c1
61 | > 7.00 | CCNC(=O)c1cc(-c2cc(C)c3c(n2)C(C)(C)N(c2cnn(CC(F)F)c2)C3=O)cnc1OC
62 | > 7.00 | COc1cc(-c2ccc3c(n2)CN(c2cnn(Cc4csc(C)n4)c2)C3=O)cnc1OC
63 | > 7.00 | Cc1cc(-c2cnc(C)c(OCC(F)(F)F)c2)nc2c1C(=O)N(c1ccn([C@H]3CCOC3)n1)C2
64 | > 7.00 | COc1cc(-c2ccc3c(n2)CN(c2ccc(N4CCC(O)CC4)nc2)C3=O)cnc1OC
65 | > 7.00 | COCCOc1ncc(-c2cc(C)c3c(n2)[C@H](C)N(c2ccn(C)n2)C3=O)cc1OC
66 | > 7.00 | C=C(F)Cn1cc(N2Cc3nc(-c4cncc(OC(F)F)c4)cc(C)c3C2=O)cn1
67 | > 7.00 | COc1cc(-c2ccc3c(n2)CN(c2cnn(C(C)C#N)c2)C3=O)cnc1OC (stereo not given)
68 | > 7.00 | COc1cncc(-c2cc(C)c3c(n2)C(OC)N(c2cnn(CC(F)(F)F)c2)C3=O)c1 (stereo not given)
69 | > 7.00 | COc1cc(-c2ccc3c(n2)CN(c2cnn(Cc4ccncc4)c2)C3=O)cnc1OC

Row | pKi | SMILES
70 | > 7.00 | COc1ncc(-c2ccc3c(c2)CN(c2cnn(CC#N)c2)C3=O)c(OC)n1
71 | > 7.00 | COc1cc(-c2ccc3c(n2)CN(c2cnn(Cc4ccccn4)c2)C3=O)cnc1OC
72 | > 7.00 | COc1cc(-c2ccc3c(n2)C(C)N(c2cnn(CC#N)c2)C3=O)cnc1OC (stereo not given)
73 | > 7.00 | Cc1cc(-c2cncc(OCC(F)(F)F)c2)nc2c1C(=O)N(c1cnn(CC(F)(F)F)c1)C2(C)C
74 | > 7.00 | Cc1cc(-c2cccnc2)nc2c1C(=O)N(c1cnn(CC#N)c1)C2
75 | > 7.00 | COc1cc(-c2ccc3c(n2)CN(c2cnn(CC(O)CF)c2)C3=O)cnc1OC (stereo not given)
76 | > 7.00 | COc1cc(OC)c(-c2cc(C)c3c(c2)CN(c2cnn(CC(F)(F)F)c2)C3=O)cn1
77 | > 7.00 | Cc1cc(-c2cncc(OCCF)c2)nc2c1C(=O)N(c1cnn(CC(F)(F)F)c1)C2
78 | > 7.00 | COc1cc(-c2cc(C)c3c(n2)CN(c2csc(C)c2)C3=O)cnc1OC
79 | > 7.00 | COc1cncc(-c2cc(C)c3c(n2)C2(CN(C(C)=O)C2)N(c2cnn(CC(F)(F)F)c2)C3=O)c1
80 | > 7.00 | CCn1cc(N2Cc3nc(-c4cnc(OC)c(OC)c4)ccc3C2=O)cn1
81 | > 7.00 | COc1cc(-c2ccc3c(n2)CN(c2cnn(CCO)c2)C3=O)cnc1OC
82 | > 7.00 | Cc1cc(-c2cncc(OC(F)F)c2)nc2c1C(=O)N(c1ccnc(OCC(F)F)c1)C2
83 | > 7.00 | COc1ncc(-c2cc(C)c3c(n2)CN(c2cnn(C(C)(C)C#N)c2)C3=O)cc1OC(C)C
84 | > 7.00 | CCOc1cncc(-c2cc(C)c3c(n2)[C@@H](OC)N(c2cnn(CC(F)(F)F)c2)C3=O)c1
85 | > 7.00 | Cc1cc(-c2cncc(CO)c2)nc2c1C(=O)N(c1cnn(CC(F)(F)F)c1)C2
86 | > 7.00 | COc1cncc(-c2cc(C)c3c(n2)C2(CC(O)C2)N(c2cnn(CC(F)(F)F)c2)C3=O)c1 (stereo not given)
87 | > 7.00 | CCn1ccc(N2C(=O)c3c(C)cc(-c4cncc(OC(F)F)c4)nc3[C@@H]2C)n1
88 | > 7.00 | CCOc1ncc(-c2cc(C)c3c(n2)CN(c2cnn(C(C)(C)C#N)c2)C3=O)cc1OC
89 | > 7.00 | COc1cc(-c2cc(C)c3c(n2)CN(c2ccsc2)C3=O)cnc1OC
90 | > 7.00 | CCc1cc(N2Cc3nc(-c4cnc(OC)c(OC)c4)cc(C)c3C2=O)nn1C
91 | > 7.00 | COc1ccc(-c2cc(C)c3c(n2)CN(c2cnn(CC#N)c2)C3=O)nc1OC
92 | > 7.00 | COc1cc(-c2ccc3c(n2)C(C)N(c2ccnc(C(C)C#N)c2)C3=O)cnc1OC (stereo not given)
93 | > 7.00 | CCn1cc(N2Cc3nc(-c4cncc(OC)c4)cc(C)c3C2=O)cn1
94 | > 7.00 | COc1cc(-c2ccc3c(n2)CN(c2ccn(CC(F)(F)F)n2)C3=O)cnc1OC
95 | > 7.00 | COc1cc(-c2cc(C)c3c(n2)CN(c2cnn(C4CC4)c2)C3=O)cnc1OC
